Bounds are passed on as bounds.

One assay addresses human P2X7 receptor (Homo sapiens, UniProt Q99572, R270H/Y155H). Put plainly: Evaluation of human P2X7 receptor inhibitory activity (Yo-Pro uptake, BzATP stimulation, FLIPR TETRA). To be noted: 1321N1 cells stably expressing human P2X7 receptor; BzATP stimulation, Yo-Pro uptake; read-out: IC50 (antagonistic activity for the human P2X7 receptor). Format: cell-based. How it is done: Stably expressing cell line (1321N1 cell transfected with the human P2X7 receptor gene (GenBank accession number NM_002562.5 including T606C and G952A SNP)) was used. The cells were seeded in a 384-well microtiter plate at a concentration of 8000 cells/well and cultured in the medium (10% fetal bovine serum, 25 mM HEPES, 1% penicillin and streptomycin in DMEM) for one day at 37° C. under 5% carbon dioxide atmosphere. After replacing with 20 μL of the HBSS buffer (20 mM HEPES, 55.6 mM D-glucose, 1×HBSS(−), pH7.4-7.5), 15 μL of 17.3 μM Yo-Pro solution in the HBSS buffer was added. The plate was placed in high-throughput cellular screening system FLIPR TETRA (Molecullar Devices, LLC.) and 15 μL of 130 μM BzATP solution in the HBSS buffer was added. Measurement of fluorescence intensity by FLIPR TETRA was started. After eight minutes, 15 μL of DMSO solutions containing different concentrations of the compound of the present invention as prepared by dilution with the HBSS buffer were dispensed to each well through the built-in automatic dispenser, and the measurement of fluorescence intensity was continued for 20 minutes. […] Changing values of fluorescence intensity by the compound of the present invention were calculated by difference between maximum and minimum fluorescence intensity for 20 minutes. Inhibition ratios (%) were calculated from the following equation:
[formula] IC50 was calculated using logistic approximation.
For orientation: IC50 means the point on the concentration scale where inhibition reaches its midpoint. Take `COc1cn(Cc2ccccc2)c(Nc2cc3[nH]ccc3cc2C)nc1=O` [Compound I-0618]: the IC50 was 7 nM. `COc1cc(Cn2cc(OC)c(=O)nc2Nc2cccc(Cl)c2C)ccc1F` [Compound I-0698]: the IC50 was found to be 100 nM.

For the compound `Cc1cc2c(cc1Nc1nc(=O)c(F)cn1Cc1ccccc1)OCCO2` [Compound I-0366], the IC50 came out at 35 nM. On the same count and under the same terms, under `COc1cn(Cc2ccc(F)c(Cl)c2)c(Nc2cccc3occc23)nc1=O` [Compound I-0636] stands 50 nM. On to `COc1cn(Cc2ccccc2)c(Nc2cccc3sccc23)nc1=O` [Compound I-0104], for which the IC50 amounted to 41 nM. Consider `COc1cnc(Nc2cc(C)cc3[nH]ccc23)n(Cc2ccc(F)c(Cl)c2)c1=O` [Compound I-0989], for which the IC50 was determined as 300 nM. With `Cc1c(Cl)cccc1Nc1nc(=O)c(N)cn1Cc1ccccc1` [Compound I-0022], the IC50 turned out to be 17 nM.

The same assay, now with this note: 1321N1 cells stably expressing human P2X7 receptor; BzATP stimulation, Yo-Pro uptake; read-out: IC50 (antagonistic activity for the human P2X7 receptor), class symbol.
Turning to `COc1cn(Cc2ccccc2)c(Nc2cccc(SC)c2C)nc1=O` [Compound I-0429], the IC50 is below 10 nM. Still for that read-out and setting: under `COc1cc(C)c(Nc2nc(=O)c(OC)cn2Cc2ccc(F)cc2)cc1OC` [Compound I-0275] stands 10 to 100 nM. In the case of `COc1cn(Cc2ccc(Cl)cc2)c(Nc2cc(C)c(Cl)cc2C)nc1=O` [Compound I-0171], the IC50 is 10 to 100 nM. `COc1cn(Cc2ccc(F)c(F)c2)c(Nc2cc(OC(C)C)ccc2C)nc1=O` [Compound I-0555]: the IC50 was in the range of 10 to 100 nM. `COc1cn(Cc2ccc(F)c(Cl)c2)c(Nc2cc(C)c(C)cc2C)nc1=O` [Compound I-0243]: the IC50 was below 10 nM.

As to `Cc1c(Cl)cccc1Nc1nc(=O)c(C(F)(F)F)cn1Cc1ccccc1` [Compound I-0216], the IC50 was in the range of 100 to 500 nM.

Consider `CNC(=O)Cc1cn(Cc2ccccc2)c(Nc2cccc(Cl)c2C)nc1=O` [Compound I-0330], for which the IC50 was 100 to 500 nM. Still for that read-out and setting: with `COc1cn(Cc2ccccc2)c(Nc2cc(OCC(F)(F)F)ccc2C)nc1=O` [Compound I-0493] the figure was 10 to 100 nM; with `COc1cn(Cc2cccc(Cl)c2)c(Nc2cc(C)c(OC(F)F)cc2C)nc1=O` [Compound I-0299], 10 to 100 nM; with `COc1cn(Cc2ccccc2OC(F)F)c(Nc2cccc(Cl)c2C)nc1=O` [Compound I-0421], 10 to 100 nM. As to `COc1cn(Cc2ccc(F)c(Cl)c2)c(Nc2cc(C)cc(C)c2C)nc1=O` [Compound I-0502], the IC50 was 10 to 100 nM. On the same count and under the same terms, under `COc1cn(Cc2ccc(F)cc2)c(Nc2ccc(C)cc2C)nc1=O` [Compound I-0375] stands 10 to 100 nM. `COc1cn(Cc2ccc(F)c(F)c2)c(Nc2cc(C)c(F)cc2C)nc1=O` [Compound I-0503]: the IC50 was below 10 nM.

Consider `COc1cn(Cc2ccccc2)c(Nc2ccccc2C(F)(F)F)nc1=O` [Compound I-0089], for which the IC50 lay within 500 to 1000 nM.

Take `COc1ccc(Cl)c(Nc2nc(=O)c(OC)cn2Cc2ccccc2)c1` [Compound I-0152]: the IC50 lay in the range of 100 to 500 nM. As for `CCc1ccc(Cl)cc1Nc1nc(=O)c(OC)cn1Cc1ccccc1` [Compound I-0175], the IC50 lay in the range of 10 to 100 nM. Consider `COc1cn(Cc2ccccc2F)c(Nc2cccc(Cl)c2C)nc1=O` [Compound I-0040], for which the IC50 was 10 to 100 nM. On the same count and under the same terms, with `COc1cn(Cc2ccccc2)c(Nc2ccc3[nH]ccc3c2C)nc1=O` [Compound I-0583] the figure was below 10 nM; with `COc1cc(C)c(Nc2nc(=O)c(OC)cn2Cc2ccc(F)c(F)c2)cc1OC` [Compound I-0276], 10 to 100 nM. For `Cc1c(Cl)cccc1Nc1nc(=O)c(CC(=O)NCc2ccccc2)cn1Cc1ccccc1` [Compound I-0341], the half-inhibitory concentration (IC50) is 100 to 500 nM.

On to `COc1cn(Cc2ccccc2)c(Nc2cc(O)ccc2Cl)nc1=O` [Compound I-0156], for which the IC50 lay within 100 to 500 nM.

On to `COc1cn(Cc2cccc(Cl)c2)c(Nc2cccc(C)c2C)nc1=O` [Compound I-0312], for which the IC50 lay within 10 to 100 nM.

On to `COc1cn(Cc2ccccc2)c(Nc2cc(Cl)c(Cl)cc2C)nc1=O` [Compound I-0423], for which the IC50 lay in the range of 10 to 100 nM. In the case of `COc1cn(Cc2cc(F)c(F)c(F)c2)c(Nc2cc(C)ccc2C)nc1=O` [Compound I-0571], the IC50 is below 10 nM. Take `COc1cn(Cc2cc(F)cc(F)c2)c(Nc2cc3c(cc2C)COC3)nc1=O` [Compound I-0003]: the IC50 is below 10 nM.

Turning to `Cc1c(Cl)cccc1Nc1nc(=O)c(CC(=O)NCC#N)cn1Cc1ccccc1` [Compound I-0344], the IC50 fell in the range of 100 to 500 nM.

For the compound `COc1cn(Cc2cccc(F)c2)c(Nc2cc(C)c(C)cc2C)nc1=O` [Compound I-0177], the half-inhibitory concentration (IC50) is below 10 nM. `COc1cn(Cc2cccc(C#N)c2)c(Nc2cccc(Cl)c2C)nc1=O` [Compound I-0047]: the IC50 was in the range of 500 to 1000 nM. On to `Cc1cccc(Nc2nc(=O)c(F)cn2Cc2cccc(Cl)c2)c1C` [Compound I-0224], for which the IC50 is below 10 nM. As to `Cc1c(Cl)cccc1Nc1nc(=O)c(CCO)cn1Cc1ccccc1` [Compound I-0024], the IC50 lay in the range of 10 to 100 nM.

The same assay, now with this note: antagonistic activity for the human P2X7 receptor; read-out: IC50.
For `COc1cc(C)c(Nc2nc(=O)c(F)cn2Cc2cc(F)c(F)c(F)c2)cc1C(C)C` [Compound I-1070], the IC50 is 10 to 100 nM. As to `COc1cn(Cc2cc(F)c(F)c(F)c2)c(Nc2cc(-c3cscn3)ccc2C)nc1=O` [Compound I-0802], the IC50 was below 10 nM. In the case of `Cc1cc2c(cc1Nc1nc(=O)c(F)cn1Cc1ccc(F)c(F)c1)COC2` [Compound I-1028], the IC50 was below 10 nM. For the compound `COc1cn(Cc2ccc(F)c(Cl)c2)c(Nc2cc(OC(F)F)c(C)cc2C)nc1=O` [Compound I-0876], the IC50 is below 10 nM. In the case of `CCc1cc2c(cc1Nc1nc(=O)c(OC)cn1Cc1ccc(F)c(Cl)c1)OCCO2` [Compound I-0798], the half-inhibitory concentration (IC50) fell in the range of 10 to 100 nM.

For `COc1ccc(Nc2nc(=O)c(F)cn2Cc2ccc(F)c(Cl)c2)c(C)c1` [Compound I-0840], the IC50 was below 10 nM. Take `COc1ccc(Nc2nc(=O)cnn2Cc2ccc(F)c(Cl)c2)c(C)c1` [Compound I-1270]: the IC50 is below 10 nM. On the same count and under the same terms, with `COCc1cn(Cc2cc(F)c(F)c(F)c2)c(Nc2cc(OC)ccc2C)nc1=O` [Compound I-1138] the figure was 10 to 100 nM; with `COc1ccc(C)c(Nc2nc(=O)c(OC)cn2Cc2cccc(Cl)c2)c1` [Compound I-0627], 10 to 100 nM. Regarding `Cc1cc(OC(F)(F)F)ccc1Nc1nc(=O)c(F)cn1Cc1cc(F)c(F)c(F)c1` [Compound I-1103], the IC50 lay within 10 to 100 nM.

As for `C=C(C)c1ccc(C)c(Nc2nc(=O)c(OC)cn2Cc2ccc(F)c(F)c2)c1` [Compound I-0747], the IC50 lay within 10 to 100 nM.

Consider `Cc1cn(Cc2ccc(F)c(F)c2)c(Nc2ccc3[nH]ccc3c2C)nc1=O` [Compound I-1168], for which the IC50 was below 10 nM. As to `COc1cn(Cc2ccc(F)c(F)c2)c(Nc2cc(S(C)(=O)=O)cc(C)c2C)nc1=O` [Compound I-0756], the IC50 was 10 to 100 nM. In the case of `Cc1cc(Nc2nc(=O)c(F)cn2Cc2cc(F)c(F)c(F)c2)c(C)cc1F` [Compound I-1227], the IC50 is below 10 nM.

Consider `COc1cc(Cl)c(Nc2nc(=O)c(OC)cn2Cc2cc(F)c(F)c(F)c2)cc1OC` [Compound I-0848], for which the IC50 was below 10 nM.

Take `COc1cn(Cc2ccc(F)c(F)c2)c(Nc2cc(-c3cccnc3)ccc2C)nc1=O` [Compound I-0764]: the IC50 was below 10 nM. As to `COCc1cn(Cc2cc(F)c(F)c(F)c2)c(Nc2cc(OC)c(OC)cc2C)nc1=O` [Compound I-1144], the 50% inhibitory concentration (IC50) was 10 to 100 nM. Regarding `COc1cn(Cc2cc(F)cc(Cl)c2)c(Nc2cc(Cl)c(F)cc2C)nc1=O` [Compound I-0811], the IC50 was 10 to 100 nM. `COc1cccc(Nc2nc(=O)c(OC)cn2Cc2cc(F)cc(F)c2)c1Cl` [Compound I-0638]: the IC50 was below 10 nM. In the case of `COc1cn(Cc2cc(F)cc(F)c2)c(Nc2cc(C)c(OCC(F)(F)F)cc2C)nc1=O` [Compound I-0806], the IC50 lay in the range of 10 to 100 nM. Turning to `CCOc1ccc(F)c(Nc2nc(=O)c(F)cn2Cc2cc(F)c(F)c(F)c2)c1` [Compound I-1215], the IC50 was below 10 nM. Take `COc1cn(Cc2cc(F)cc(F)c2)c(Nc2cccc3occc23)nc1=O` [Compound I-0640]: the IC50 was in the range of 10 to 100 nM. On to `Cc1ccc(-c2cccn(C)c2=O)cc1Nc1nc(=O)c(F)cn1Cc1cc(F)c(F)c(F)c1` [Compound I-1221], for which the IC50 was below 10 nM.

For the compound `COc1cn(Cc2cc(F)cc(Cl)c2)c(Nc2ccc(OC(F)F)cc2C)nc1=O` [Compound I-0613], the IC50 was in the range of 10 to 100 nM. As to `COc1cn(Cc2cc(F)cc(Cl)c2)c(Nc2cc(Cl)c(Cl)cc2C)nc1=O` [Compound I-0666], the IC50 fell in the range of 100 to 500 nM.

`COc1ccc(Nc2nc(=O)c(C)nn2Cc2cc(F)c(F)c(F)c2)c(C)n1` [Compound I-1259]: the IC50 is 10 to 100 nM. The same measure, in the same setting: under `CCc1ccccc1Nc1nc(=O)c(F)cn1Cc1cc(F)c(F)c(F)c1` [Compound I-1176] stands below 10 nM; under `COc1cn(Cc2cc(F)c(F)c(F)c2)c(Nc2cc(OC(F)(F)F)ccc2C)nc1=O` [Compound I-0869], 10 to 100 nM. `COc1cn(Cc2cccc(F)c2)c(Nc2cccc(OC(F)F)c2C)nc1=O` [Compound I-0641]: the IC50 lay within 10 to 100 nM.
